Assay: xn = mol fraction of the nth substance listed
Conditions: 100 kPa

CC[N+]1(C)CCCC1.COP(=O)([O-])OC + CCO
viscosity [mPa·s]
Conditions	293.15 K	298.15 K	303.15 K	308.15 K	313.15 K	318.15 K	323.15 K	328.15 K	333.15 K	338.15 K
x1 = 0.0534	–	2.03	1.84	1.7	1.59	1.47	–	1.27	1.18	–
x1 = 0.1054	3.4	3.06	2.75	2.51	2.31	–	1.96	–	1.71	1.6
x1 = 0.1535	–	–	–	3.68	3.33	3.06	–	2.61	2.42	2.23
x1 = 0.2015	6.75	6.07	5.35	4.78	4.33	3.97	–	–	–	2.8
x1 = 0.306	13.5	–	10.16	8.72	7.62	6.71	6.04	5.41	4.85	4.4
x1 = 0.4029	23.1	19.4	16.43	13.96	11.88	10.18	8.85	7.81	6.85	6
x1 = 0.5052	37.5	30.3	24.7	–	17.4	14.83	12.49	10.82	9.31	8
x1 = 0.6022	57	45.9	36.3	29.9	24.6	20.4	17.4	–	12.65	10.78
x1 = 0.6938	83.2	64.5	50.1	–	32.4	27	–	19	16.05	13.13
x1 = 0.8049	120.2	91.1	70	54.9	44	35.6	–	–	20.3	16.7
x1 = 0.9073	171	127.5	94.7	73.8	57.5	46.3	38	31	24.5	–
x1 = 1	228	169	–	–	72.8	56.4	45.1	36.6	29.8	–

COP(=O)([O-])OC.C[N+]1(CCO)CCCC1 + CCO
viscosity [mPa·s]
Conditions	293.15 K	298.15 K	303.15 K	308.15 K	313.15 K	318.15 K	323.15 K	328.15 K	333.15 K	338.15 K
x1 = 0.0561	2.69	2.27	–	–	1.54	1.33	1.17	1.04	0.92	0.82
x1 = 0.1077	–	4.39	3.88	–	3.23	2.94	2.69	2.47	2.28	2.1
x1 = 0.1523	7.31	6.71	6.24	–	5.31	4.98	4.66	4.37	4.09	3.85
x1 = 0.2079	–	10.91	–	8.65	7.87	–	6.44	–	5.33	4.93
x1 = 0.2537	19.2	16.9	14.81	13.08	11.56	–	9.55	8.62	8	7.27
x1 = 0.3084	–	27.7	–	–	18.5	16.22	14.35	–	11.68	10.55
x1 = 0.4033	–	48.5	40.2	34.3	30	–	22.9	20.3	–	–
x1 = 0.5077	–	98.2	–	64.3	53.4	–	–	33.1	28	–
x1 = 0.6042	220	174	133.8	108.1	87.6	72.1	–	–	42	–
x1 = 0.7053	–	–	219	167	128.5	102.3	82.6	66.1	–	43.3
x1 = 0.8055	670	–	346	257	196	152.8	120.7	95	76.3	–
x1 = 0.9053	1030	722	512	374	–	212	163	128.6	102.4	80.5
x1 = 1	1452	981	687	496	366	–	210	162	127.5	96.7

CCO + CC[N+]1(C)CCCC1.COP(=O)([O-])OC
x2 = 0
Conditions	viscosity [mPa·s]
293.15 K	1.19
298.15 K	1.08
303.15 K	0.98
313.15 K	0.82
323.15 K	0.69
338.15 K	0.54

CCO + COP(=O)([O-])OC.C[N+]1(CCO)CCCC1
x2 = 0
Conditions	viscosity [mPa·s]
293.15 K	1.19
303.15 K	0.98
308.15 K	0.9
313.15 K	0.82
318.15 K	0.75
323.15 K	0.69
328.15 K	0.63
333.15 K	0.58
338.15 K	0.54

Source: a compilation of properties of binary mixtures (doi:10.1016/j.fluid.2021.113175)
